Assay results as given in the supplement of paper PMC11962398.

How the values were obtained:
BI-2493 [1] = compound: T1, C[C@H]1CNCCN1c1nccc(-c2noc3c2CCC[C@@]32CCCc3sc(N)c(C#N)c32)n1 [BI-2493]; details: 5 days
Experimental: (§1)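 PRISM pooled barcoded cancer cell line viability screen (Broad Institute) with BI-2493 at 8 doses in threefold dilutions from 0.00457 to 10 µmol/L, 5-day treatment; curves fitted per cell line. IC50 is undefined (placeholder) for resistant lines. AUC is capped at 1, and sensitivity is reported as 1 − AUC.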

BI-2493 [2] = compound: T1, BI-2493; experiment: 1 - AUC of viability dose-response curve (sensitivity) (fraction); higher = more sensitive; details: 5 days
Experimental: as §1

| Test System | IC50 of cell viability (BI-2493 [1]) | 1 - AUC of viability dose-response curve (BI-2493 [2]) |
| --- | --- | --- |
| PANC0813_PANCREAS | 7.44 µM | 0.27 |
| PANC1005_PANCREAS | 3.98 µM | 0.121 |
| PATU8902_PANCREAS | 6.58 µM | 0.0766 |
| PATU8988S_PANCREAS | 1.14 µM | 0.197 |
| PATU8988T_PANCREAS | 4.5 µM | 0.0812 |
| PC3_PROSTATE | > 10 µM | 0.0397 |
| PC14_LUNG | 3.98 µM | 0.181 |
| PEA1_OVARY | 5.96 µM | 0.0757 |
| PECAPJ15_UPPER_AERODIGESTIVE_TRACT | 5.35 µM | 0.125 |
| PECAPJ41CLONED2_UPPER_AERODIGESTIVE_TRACT | 8.74 µM | 0.0352 |
| PECAPJ49_UPPER_AERODIGESTIVE_TRACT | 5.93 µM | 0.0961 |
| PEDS005TPFAD_KIDNEY | 4.24 µM | 0.199 |
| PEDS005TSUSP_KIDNEY | 7.58 µM | 0.0633 |
| PEDS015T_SOFT_TISSUE | > 10 µM | 0.0985 |
| PF382_HAEMATOPOIETIC_AND_LYMPHOID_TISSUE | 5.53 µM | 0.102 |
| PFSK1_CENTRAL_NERVOUS_SYSTEM | > 10 µM | 0.063 |
| PK1_PANCREAS | 6.81 µM | 0.131 |
| PK8_PANCREAS | 2.17 µM | 0.161 |
| PK45H_PANCREAS | 4.3 µM | 0.168 |
| PK59_PANCREAS | 1.05 µM | 0.336 |
| PL21_HAEMATOPOIETIC_AND_LYMPHOID_TISSUE | 0.451 µM | 0.358 |
| PLCPRF5_LIVER | 5.13 µM | 0.132 |
| PMFKO14_LARGE_INTESTINE | 7.87 µM | 0.106 |
| PSN1_PANCREAS | 9.23 µM | 0.137 |
| QGP1_PANCREAS | 1.55 µM | 0.253 |

| Test System | IC50 of cell viability (BI-2493 [1]) | 1 - AUC of viability dose-response curve (BI-2493 [2]) |
| --- | --- | --- |
| RBE_BILIARY_TRACT | 2.47 µM | 0.243 |
| RCC10RGB_KIDNEY | 6.59 µM | 0.0818 |
| RCHACV_HAEMATOPOIETIC_AND_LYMPHOID_TISSUE | 4.98 µM | 0.198 |
| RCK8_HAEMATOPOIETIC_AND_LYMPHOID_TISSUE | 4.38 µM | 0.0825 |
| RCM1_LARGE_INTESTINE | 1.73 µM | 0.271 |
| RDES_BONE | 9.6 µM | 0.0344 |
| RD_SOFT_TISSUE | 9.09 µM | 0.0771 |
| RERFGC1B_STOMACH | 3.33 µM | 0.262 |
| RERFLCAD1_LUNG | 4.27 µM | 0.18 |
| RERFLCAD2_LUNG | 4.39 µM | 0.12 |
| RERFLCKJ_LUNG | 8.19 µM | 0.0525 |
| RERFLCMS_LUNG | 8.02 µM | 0.037 |
| RH4_SOFT_TISSUE | 6.58 µM | 0.0866 |
| RH28_SOFT_TISSUE | 5.97 µM | 0.0907 |
| RH30_SOFT_TISSUE | 9.22 µM | 0.0138 |
| RH36_SOFT_TISSUE | 6.76 µM | 0.119 |
| RI1_HAEMATOPOIETIC_AND_LYMPHOID_TISSUE | 6.4 µM | 0.106 |
| RKO_LARGE_INTESTINE | 7.43 µM | 0.0968 |
| RL952_ENDOMETRIUM | 3.87 µM | 0.108 |
| RL_HAEMATOPOIETIC_AND_LYMPHOID_TISSUE | 4.21 µM | 0.0967 |
| RMGI_OVARY | 9.09 µM | 0.0414 |
| RMSYM_SOFT_TISSUE | 6.04 µM | 0.119 |
| RMUGS_OVARY | 5.26 µM | 0.122 |
| RO82W1_THYROID | 5.35 µM | 0.123 |
| RPMI7951_SKIN | 6.06 µM | 0.0692 |

| Test System | IC50 of cell viability (BI-2493 [1]) | 1 - AUC of viability dose-response curve (BI-2493 [2]) |
| --- | --- | --- |
| RPMI8402_HAEMATOPOIETIC_AND_LYMPHOID_TISSUE | 6.85 µM | 0.0899 |
| RT4_URINARY_TRACT | 5.51 µM | 0.147 |
| RT112_URINARY_TRACT | 1.22 µM | 0.281 |
| RVH421_SKIN | 5.43 µM | 0.133 |
| S117_THYROID | 4.21 µM | 0.0998 |
| SAOS2_BONE | 9.58 µM | 0.0212 |
| SBC5_LUNG | 5.31 µM | 0.122 |
| SCC3_HAEMATOPOIETIC_AND_LYMPHOID_TISSUE | 8.83 µM | 0.0243 |
| SCC9_UPPER_AERODIGESTIVE_TRACT | 6.27 µM | 0.11 |
| SCC25_UPPER_AERODIGESTIVE_TRACT | 5.3 µM | 0.128 |
| SCLC21H_LUNG | 7.84 µM | 0.0414 |
| SF126_CENTRAL_NERVOUS_SYSTEM | 4.43 µM | 0.0902 |
| SF295_CENTRAL_NERVOUS_SYSTEM | 9.02 µM | 0.0199 |
| SF539_CENTRAL_NERVOUS_SYSTEM | 9.12 µM | 0.173 |
| SG231_BILIARY_TRACT | 2.09 µM | 0.286 |
| SH4_SKIN | 6.75 µM | 0.0518 |
| SH10TC_STOMACH | 4.52 µM | 0.125 |
| SHMAC5_PROSTATE | 3.3 µM | 0.118 |
| SIMA_AUTONOMIC_GANGLIA | > 10 µM | 0.159 |
| SJSA1_BONE | 7.93 µM | 0.095 |
| SKES1_BONE | 6.06 µM | 0.128 |
| SKGII_ENDOMETRIUM | 8.23 µM | 0.0529 |
| SKGI_ENDOMETRIUM | 4.89 µM | 0.142 |
| SKGT2_STOMACH | 9.72 µM | 0.00814 |
| SKGT4_OESOPHAGUS | 0.494 µM | 0.403 |
